pIC50: −log10 of the molar value.
Target: T1, endopeptidase 24.11 (Rattus norvegicus, UniProt P07861)
T1 construct: was prepared by extracting from a rat kidney; from tissue; host or cells: Wistar rat kidney, homogenate pellet after ultracentrifugation (crude membrane preparation)
T1 sequence (P07861 1-750): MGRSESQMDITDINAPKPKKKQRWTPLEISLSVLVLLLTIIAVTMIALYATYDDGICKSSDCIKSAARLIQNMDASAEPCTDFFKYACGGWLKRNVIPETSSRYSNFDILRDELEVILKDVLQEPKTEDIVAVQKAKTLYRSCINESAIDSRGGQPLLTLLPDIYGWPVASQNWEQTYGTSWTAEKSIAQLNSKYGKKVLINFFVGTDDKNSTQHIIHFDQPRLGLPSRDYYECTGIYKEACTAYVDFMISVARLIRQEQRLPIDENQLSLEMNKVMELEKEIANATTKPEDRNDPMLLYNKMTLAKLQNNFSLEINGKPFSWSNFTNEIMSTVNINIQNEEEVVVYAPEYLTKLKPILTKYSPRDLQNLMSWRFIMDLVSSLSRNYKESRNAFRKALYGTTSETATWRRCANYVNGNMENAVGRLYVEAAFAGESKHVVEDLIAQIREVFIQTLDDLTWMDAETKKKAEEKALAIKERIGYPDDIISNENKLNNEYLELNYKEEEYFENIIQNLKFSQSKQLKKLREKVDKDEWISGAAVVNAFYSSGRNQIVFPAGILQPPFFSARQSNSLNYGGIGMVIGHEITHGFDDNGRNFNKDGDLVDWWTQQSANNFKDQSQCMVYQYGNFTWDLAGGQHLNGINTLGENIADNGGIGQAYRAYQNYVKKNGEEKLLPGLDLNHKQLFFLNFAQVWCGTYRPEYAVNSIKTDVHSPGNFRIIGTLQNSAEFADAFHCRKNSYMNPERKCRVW
Test: inhibition of endopeptidase 24.11 activity (cleavage of N-dansyl-D-alanyl-glycyl-p-nitrophenylalanyl-glycine, DAGNPG; rat kidney enzyme preparation)
Assay type: biochemical, Wistar rat
Details: DAGNPG 50 μM, pH 7.4, 37° C., 30 minutes, read-out: IC50 (concentration required to inhibit endopeptidase 24.11 by 50%)
Description: As a method for measuring an endopeptidase 24.11 activity, Florentin et al. had reported a method for measuring the enzyme activity by a degree of cleavage of a peptide bond between glycine and p-nitrophenylalanine using N-dansyl-D-alanyl-glycyl-p-nitrophenylalanyl-glycine (DAGNPG) as a substrate (Anal. Biochem., 141, 62-69 (1984)). An effect of the compounds of the invention on endopeptidase 24.11 was examined according to the method described in the literature.
An enzyme preparation used in this pharmacological test was prepared by extracting from a rat kidney by the following method according to the method of Malfloy et al. (J. Biol. Chem., 259, 14365-14370 (1984)).
A kidney was excised from a Wistar rat. The kidney was homogenized in Tris-hydrochloric acid buffer (5 mM, pH 7.4, containing 125 mM D-mannitol and 12 mM magnesium chloride). The homogenate was centrifuged at low speed (1,000×g) to give a supernatant. The supernatant was ultracentrifuged ([…]) for 120 minutes. The resulting pellet was suspended in Tris-hydrochloric acid buffer (2.5 mM, pH 7.4, containing 62.5 mM D-mannitol and 6 mM magnesium chloride). The suspension was centrifuged at low speed and then ultracentrifuged again. The resulting pellet was suspended in HEPES buffer (5 mM, pH 7.4) to give the enzyme preparation.
In order to examine the effect of the compounds of the invention on the enzyme preparation, reactions were performed under the following condition using mixed solutions consisting of the composition shown in Table 1. […]
______________________________________
Enzyme preparation 0.3-0.5 μg protein
The above-mentioned solution (150 μl) was incubated at 37° C. for 30 minutes and then boiled at 100° C. for 5 minutes. To the solution was added 1.35 ml of Tris-hydrochloric acid buffer (50 mM, pH 7.4). The mixture was centrifuged at moderate speed (5,000×g) for 5 minutes to give a supernatant. Fluorescence intensity of the supernatant (excitation at 342 nm of wave length and emission at 562 nm) was measured.
The degree of the inhibitory effect of each test compound on the enzyme preparation was expressed by the inhibition rate calculated by the following equation. [formula]
A: fluorescence intensity of the sample in the absence of the test compound
B: fluorescence intensity of the sample in the presence of the test compound

Row | SMILES | pIC50
1 | CC(C)CN(CC(O)C(=O)O)C(=O)N[C@@H](Cc1ccc(-c2ccccc2)cc1)C(=O)O (mixture of isomers) [Compound No. 3-1, (2S)-3-(4-Biphenylyl)-2-[3-[(2RS)-2-carboxy-2-hydroxyethyl]-3-isobutylureido]propionic acid] | 8.96
2 | CC(C)CN(C[C@H](O)C(=O)NO)C(=O)N[C@@H](Cc1ccccc1)C(=O)O [Compound No. 8-1, (2S)-2-[3-[(2S)-2-Hydroxy-2-hydroxycarbamoylethyl]-3-isobutylureido]-3-phenylpropionic acid] | 9.49
3 | CC(C)CN(C[C@H](O)C(=O)O)C(=O)N[C@@H](Cc1ccc(-c2ccccc2)cc1)C(=O)O [Compound No. 8-2, (2S)-3-(4-Biphenylyl)-2-[3-[(2S)-2-carboxy-2-hydroxyethyl]-3-isobutylureido]propionic acid] | 9.02
4 | CC(C)CN(C[C@H](O)C(=O)NO)C(=O)N[C@@H](Cc1ccc(-c2ccccc2)cc1)C(=O)O [Compound No. 8-9, (2S)-3-(4-Biphenylyl)-2-[3-[(2S)-2-hydroxy-2-hydroxycarbamoylethyl]-3-isobutylureido]propionic acid] | 9.80

More lines, now with the values ahead:

Row | pIC50 | SMILES
5 | 8.27 | CC(C)CN(CC(O)C(=O)O)C(=O)N[C@@H](Cc1ccccc1)C(=O)O (mixture of isomers) [Compound No. 2-1, (2S)-2-[3-[(2RS)-2-Carboxy-2-hydroxyethyl]-3-isobutylureido]-3-phenylpropionic acid]
6 | 8.51 | CC(C)CN(CC(O)C(=O)O)C(=O)N[C@@H](Cc1ccc(-c2ccc(F)cc2)cc1)C(=O)O (mixture of isomers) [Compound No. 3-2, (2S)-2-[3-[(2RS)-2-Carboxy-2-hydroxyethyl]-3-isobutylureido]-3-[4-(4-fluorophenyl)phenyl]propionic acid]
7 | 7.19 | CC(C)CN(CC(O)C(=O)O)C(=O)N[C@H](C(=O)O)c1ccccc1 (mixture of isomers) [Compound No. 3-4, (2RS)-3-[3-[(S)-α-Carboxybenzyl]-1-isobutylureido]-2-hydroxypropionicacid]
8 | 8.68 | CC(C)CN(C[C@@H](O)C(=O)O)C(=O)N[C@@H](Cc1ccc(-c2ccccc2)cc1)C(=O)O [Compound No. 8-3, (2S)-3-(4-Biphenylyl)-2-[3-[(2R)-2-carboxy-2-hydroxyethyl]-3-isobutylureido]propionic acid]
9 | 9.57 | CC(C)CN(C[C@H](O)C(=O)NO)C(=O)N[C@@H](Cc1ccc2ccccc2c1)C(=O)O [Compound No. 9-1, (2S)-2-[3-[(2S)-2-Hydroxy-2-hydroxycarbamoylethyl]-3-isobutylureido]-3-(2-naphthyl)propionic acid]
